1 molecule from article doi:10.1101/2023.10.03.560722, “Drug Discovery in Low Data Regimes: Leveraging a Computational Pipeline for the Discovery of Novel SARS-CoV-2 Nsp14-MTase Inhibitors” (bioRxiv, 2024) can be followed below.

A word on the Kd: it is the constant that tells how readily two partners part at equilibrium.

Where two headings read alike, the source gives them in different places.

One assay deals with T1, NSD2 (Homo sapiens, UniProt O96028).
T1 sequence (O96028 1-1365): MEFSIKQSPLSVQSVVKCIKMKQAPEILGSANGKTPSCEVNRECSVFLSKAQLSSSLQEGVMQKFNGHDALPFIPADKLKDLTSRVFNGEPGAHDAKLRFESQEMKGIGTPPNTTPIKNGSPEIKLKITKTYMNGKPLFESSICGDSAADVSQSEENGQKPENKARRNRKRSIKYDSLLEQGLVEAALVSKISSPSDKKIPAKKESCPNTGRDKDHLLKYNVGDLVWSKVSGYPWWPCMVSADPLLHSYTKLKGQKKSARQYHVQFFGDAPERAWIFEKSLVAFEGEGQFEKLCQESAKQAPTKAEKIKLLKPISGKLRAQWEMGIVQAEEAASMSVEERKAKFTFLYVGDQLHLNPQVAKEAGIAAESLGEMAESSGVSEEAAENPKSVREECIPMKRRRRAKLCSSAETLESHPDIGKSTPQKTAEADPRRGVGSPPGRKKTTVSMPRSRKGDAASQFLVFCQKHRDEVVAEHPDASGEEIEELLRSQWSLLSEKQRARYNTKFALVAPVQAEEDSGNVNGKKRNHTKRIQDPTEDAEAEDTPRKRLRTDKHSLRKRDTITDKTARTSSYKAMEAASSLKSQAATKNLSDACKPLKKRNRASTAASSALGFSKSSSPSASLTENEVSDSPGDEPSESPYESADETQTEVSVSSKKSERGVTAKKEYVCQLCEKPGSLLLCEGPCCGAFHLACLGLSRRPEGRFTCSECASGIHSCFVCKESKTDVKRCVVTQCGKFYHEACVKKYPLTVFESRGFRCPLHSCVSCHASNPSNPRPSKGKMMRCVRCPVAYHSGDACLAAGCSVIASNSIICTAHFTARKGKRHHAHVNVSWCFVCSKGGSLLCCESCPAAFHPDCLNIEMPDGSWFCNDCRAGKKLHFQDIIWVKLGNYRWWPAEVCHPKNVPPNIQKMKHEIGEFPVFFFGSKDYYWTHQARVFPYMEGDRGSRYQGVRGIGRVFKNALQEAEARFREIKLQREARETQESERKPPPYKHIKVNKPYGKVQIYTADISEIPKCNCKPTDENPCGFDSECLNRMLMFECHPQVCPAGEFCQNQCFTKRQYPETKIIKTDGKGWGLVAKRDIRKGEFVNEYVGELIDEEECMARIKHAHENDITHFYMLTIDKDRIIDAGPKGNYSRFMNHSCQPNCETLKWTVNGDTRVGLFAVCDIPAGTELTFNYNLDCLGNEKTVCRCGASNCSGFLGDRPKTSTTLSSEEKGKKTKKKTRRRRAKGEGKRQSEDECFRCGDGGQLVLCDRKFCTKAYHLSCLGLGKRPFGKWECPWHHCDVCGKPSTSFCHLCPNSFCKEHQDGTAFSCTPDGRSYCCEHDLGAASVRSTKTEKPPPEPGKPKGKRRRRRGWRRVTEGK
The experiment in a line: human MTase selectivity panel. Format: biochemical.

Another assay deals with SMYD2 (Homo sapiens, UniProt Q9NRG4). Description: human MTase selectivity panel. Format: biochemical.
Sequence of SMYD2 (Q9NRG4 whole entry): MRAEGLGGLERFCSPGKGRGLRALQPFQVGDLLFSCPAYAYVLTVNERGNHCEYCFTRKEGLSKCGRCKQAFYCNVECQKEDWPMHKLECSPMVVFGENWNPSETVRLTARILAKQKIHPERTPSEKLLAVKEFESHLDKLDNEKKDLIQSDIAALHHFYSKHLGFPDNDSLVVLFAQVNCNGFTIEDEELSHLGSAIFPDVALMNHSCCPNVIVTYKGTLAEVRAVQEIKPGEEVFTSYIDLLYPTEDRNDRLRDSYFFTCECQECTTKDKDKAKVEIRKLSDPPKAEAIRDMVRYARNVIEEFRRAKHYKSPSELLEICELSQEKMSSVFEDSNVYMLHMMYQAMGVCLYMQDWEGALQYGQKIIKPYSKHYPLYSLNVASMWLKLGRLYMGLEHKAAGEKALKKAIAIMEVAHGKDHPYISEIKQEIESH
Another assay addresses SUV420H1 (Homo sapiens, UniProt Q4FZB7). The experiment in a line: human MTase selectivity panel. Format: biochemical.
In the next assay the target is PRMT3 (Homo sapiens, UniProt O60678). Description: human MTase selectivity panel. Format: biochemical.
Sequence of PRMT3 (O60678 whole entry): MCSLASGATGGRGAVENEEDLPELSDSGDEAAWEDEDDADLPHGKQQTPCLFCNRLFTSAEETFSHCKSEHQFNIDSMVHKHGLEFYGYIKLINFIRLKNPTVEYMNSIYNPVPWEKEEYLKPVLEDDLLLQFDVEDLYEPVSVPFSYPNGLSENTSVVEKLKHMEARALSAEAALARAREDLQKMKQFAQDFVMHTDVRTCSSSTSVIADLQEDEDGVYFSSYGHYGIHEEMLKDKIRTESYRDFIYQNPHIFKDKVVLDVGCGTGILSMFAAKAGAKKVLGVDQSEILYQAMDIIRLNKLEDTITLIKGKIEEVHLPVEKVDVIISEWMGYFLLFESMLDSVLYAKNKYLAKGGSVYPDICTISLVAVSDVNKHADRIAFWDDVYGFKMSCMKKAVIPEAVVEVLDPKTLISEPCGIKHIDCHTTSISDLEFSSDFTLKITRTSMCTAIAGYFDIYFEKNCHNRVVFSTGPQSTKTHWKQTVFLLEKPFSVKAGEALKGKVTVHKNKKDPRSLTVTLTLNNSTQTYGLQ
Another assay deals with SARS-CoV-2. Format: cell-based. The conditions noted are these: Calu-3 cells, lung epithelial SARS-CoV-2 infection model.
The next assay deals with nsp14 (Severe acute respiratory syndrome coronavirus 2, UniProt P0DTD1). The experiment in a line: surface plasmon resonance (SPR) binding to immobilized full-length biotinylated nsp14. Details: species or system SARS-CoV-2. The settings on record: n = 3. As to the method: For Surface Plasmon Resonance (SPR), the full-length biotinylated nsp14 was immobilized on the flow cell of a SA sensor chip in 1x HBS-EP buffer, achieving a response of 8000 RU. The assay was performed using the same buffer but with 2% DMSO added. Single-cycle kinetics were employed with a contact time of 60 seconds and a dissociation time of 120 seconds, at a flow rate of 75 µL/min. NSC620333 was tested at a concentration of 10 µM as the highest concentration, and a dilution factor of 0.25 was used to yield five different concentrations.

The mark [1] stands for this setting: average ± SD, read-out: Activity (%) at 10 µM Average.
The mark [2] stands for this setting: read-out: Activity (%) at 10 µM Replicate 1.
[3] abbreviates: read-out: Activity (%) at 10 µM Replicate 2.
Where [4] appears, read: read-out: Activity (%) at 10 µM Replicate 3.

Sequence of SUV420H1 (Q4FZB7 whole entry): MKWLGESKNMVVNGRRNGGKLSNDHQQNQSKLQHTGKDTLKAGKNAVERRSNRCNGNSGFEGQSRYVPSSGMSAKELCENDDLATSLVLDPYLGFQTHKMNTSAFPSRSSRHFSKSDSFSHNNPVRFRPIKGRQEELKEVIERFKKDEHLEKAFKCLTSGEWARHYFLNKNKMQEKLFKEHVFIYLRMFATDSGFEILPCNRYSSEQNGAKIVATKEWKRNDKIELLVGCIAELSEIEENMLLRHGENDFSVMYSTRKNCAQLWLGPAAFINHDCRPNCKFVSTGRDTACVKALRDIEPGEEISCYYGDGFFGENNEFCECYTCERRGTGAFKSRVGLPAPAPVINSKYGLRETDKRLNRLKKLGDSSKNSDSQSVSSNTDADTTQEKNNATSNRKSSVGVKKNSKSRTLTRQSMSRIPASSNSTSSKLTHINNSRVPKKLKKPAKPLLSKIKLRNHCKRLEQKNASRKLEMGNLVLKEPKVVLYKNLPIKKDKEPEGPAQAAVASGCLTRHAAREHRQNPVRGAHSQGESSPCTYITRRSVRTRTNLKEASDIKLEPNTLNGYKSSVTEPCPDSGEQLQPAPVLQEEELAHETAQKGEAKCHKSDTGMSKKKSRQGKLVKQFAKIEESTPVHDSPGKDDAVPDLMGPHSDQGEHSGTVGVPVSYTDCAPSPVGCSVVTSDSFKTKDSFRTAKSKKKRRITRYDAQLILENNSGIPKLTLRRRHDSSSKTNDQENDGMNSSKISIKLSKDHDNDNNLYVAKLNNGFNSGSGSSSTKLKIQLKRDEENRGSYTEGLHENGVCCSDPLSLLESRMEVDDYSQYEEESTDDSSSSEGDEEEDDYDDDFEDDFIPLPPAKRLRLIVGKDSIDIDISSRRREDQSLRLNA

`Nc1ncnc2c1ncn2[C@@H]1O[C@H](CSCc2ccc(Cl)cc2)[C@@H](O)[C@H]1O` [NSC620333]: the activity at 10 µM amounted to 92 ± 7% at NSD2 (setting [1]); 100% on NSD2 (setting [2]); 86% at NSD2 (setting [3]); 90% at NSD2 (setting [4]); 105 ± 8% at SMYD2 (setting [1]); 104% on SMYD2 (setting [2]). Besides, the activity at 10 µM at SMYD2 (setting [3]) came to 114%; at SMYD2 (setting [4]) it was 99%; on SUV420H1 (setting [1]), 93 ± 8%; at SUV420H1 (setting [2]), 84%; on SUV420H1 (setting [3]), 97%; on SUV420H1 (setting [4]) it was 98%. Further, the activity at 10 µM was 79 ± 5% at PRMT3 (setting [1]), 75% on PRMT3 (setting [2]), 78% on PRMT3 (setting [3]) and 85% on PRMT3 (setting [4]). In addition, the anti-SARS-CoV-2 activity result in the assay on SARS-CoV-2 is given as “demonstrated anti-SARS-CoV-2 activity”. In addition, the Kd amounted to 427 ± 84 nM on nsp14 (SPR single-cycle kinetics, read-out: KD (kinetic fitting)) and 544 ± 22 nM at nsp14 (SPR steady-state 1:1 binding model, read-out: steady-state KD).
